Literature values in paper PMC10891214, “Effects of food and ethnicity on the pharmacokinetics of venadaparib, a next-generation PARP inhibitor, in healthy Korean, Caucasian, and Chinese male subjects” (Investigational New Drugs, 2023).

Test system: patient-derived xenograft
Design: method as in PMID 36808277
Details: patient-derived xenograft mouse model; cited from earlier work

Question: Which “Tumor growth inhibition rate” value does the source give for `O=C(c1cc(Cc2n[nH]c(=O)c3ccccc23)ccc1F)N1CCN(C(=O)C2CC2)CC1` [olaparib, reference compound] here?
Answer: 118.2%
